Some test systems named below: HT-29; NCI/ADR-RES; T47D; KM12; NCI-H460; A549; SK-MEL-5; HOP-62; UACC-257; HOP-92; SF-295; ACHN; LOX IMVI; EKVX; U-251; OVCAR-3; DU-145; RXF 393; SN12C; SK-MEL-2.
Common to all, as to assay: NCI-60 cell line screen, 48 h

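Test compounds were applied to cells in 96-well plates for 48 hours at 5 doses. GI50 = concentration required for 50% inhibition of growth.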 Calls of active or inactive are those of the source. Cut-off read from the data, not from the text of the source: active = GI50 up to about 1.1 µM and inactive = higher.

We go through ten compounds from ChEMBL document CHEMBL1201862, “PubChem BioAssay data set” (2004).

Regarding `O=C(O)/C=C/C(=O)Nc1nc[nH]n1`, the GI50 with HT-29, in the assay with NCI/ADR-RES, in the assay with T47D, in the assay on KM12, in the assay on NCI-H460 and in the assay with A549 was > 100 µM (inactive) each time. The GI50 in the assay with SK-MEL-5, in the assay on HOP-62, in the assay on UACC-257, with HOP-92, in the assay on SF-295 and with ACHN was > 100 µM (inactive) in each case. Also, the GI50 with LOX IMVI, in the assay with EKVX, in the assay with U-251, in the assay with OVCAR-3, in the assay on DU-145 and in the assay on RXF 393 was > 100 µM (inactive) in each case. Also, the GI50 in the assay with SN12C and in the assay on SK-MEL-2 was > 100 µM (inactive) each time.

Take `CC(=O)OCCOCCN1CCN(C2=C(Cl)C(=O)c3c(O)ccc(O)c3C2=O)CC1`: the GI50 in the assay with HT-29 was 0.796 µM (active); in the assay with NCI/ADR-RES, 0.296 µM (active); in the assay on T47D, 0.652 µM (active); with KM12, 2.15 µM (inactive); with NCI-H460, 4.9 µM (inactive); in the assay on A549 it was 2.1 µM (inactive). The GI50 is 1.54 µM (inactive) with SK-MEL-5; 3.04 µM (inactive) in the assay on HOP-62; 1.02 µM (active) in the assay with UACC-257; 0.294 µM (active) in the assay on HOP-92; 1.93 µM (inactive) in the assay with SF-295; 0.286 µM (active) in the assay on ACHN. Moreover, the GI50 in the assay with LOX IMVI was 0.423 µM (active); with EKVX it was 1.67 µM (inactive); with U-251, 2.13 µM (inactive); in the assay with OVCAR-3, 0.723 µM (active); in the assay on DU-145, 1.88 µM (inactive); in the assay with RXF 393 it was 0.69 µM (active). Also, the values for the GI50 in the assay with SN12C and in the assay on SK-MEL-2 were 0.767 µM (active) and 1.63 µM (inactive), respectively.

As to `CC1=NOC(=O)/C1=C/c1ccc2c(c1)OCO2`, the GI50 in the assay on HT-29 was 24.4 µM (inactive); in the assay on NCI/ADR-RES, 39.5 µM (inactive); in the assay on T47D, > 100 µM (inactive); in the assay with KM12, 19.1 µM (inactive); with NCI-H460, 35.1 µM (inactive); in the assay with A549, 61.8 µM (inactive). Also, the GI50 in the assay on SK-MEL-5 was 34.1 µM (inactive); with HOP-62, 19.2 µM (inactive); in the assay on UACC-257, 73.5 µM (inactive); with HOP-92, 30.2 µM (inactive); in the assay on SF-295 it was 26.7 µM (inactive); with ACHN it was 19.1 µM (inactive). Besides, the GI50 was 19 µM (inactive) with LOX IMVI; 77.3 µM (inactive) in the assay with EKVX; 18.7 µM (inactive) with U-251; 30.2 µM (inactive) in the assay on OVCAR-3; 25.1 µM (inactive) in the assay on DU-145; 16 µM (inactive) in the assay on RXF 393. Moreover, the GI50 in the assay with SN12C was 25.4 µM (inactive); with SK-MEL-2, 19.6 µM (inactive).

Turning to `CC(=O)OC12c3ccccc3-c3ccccc3C1C1C(=O)OC(=O)C12` (configuration not stated), the GI50 in the assay with HT-29, in the assay with NCI/ADR-RES, in the assay on T47D, in the assay on KM12, in the assay on NCI-H460 and with SK-MEL-5 was > 10 µM (inactive) throughout. For the same compound, the GI50 in the assay with HOP-62, in the assay on UACC-257, with HOP-92, in the assay on SF-295, in the assay on ACHN and in the assay on LOX IMVI was > 10 µM (inactive) each time. Moreover, the GI50 with EKVX, in the assay on U-251, with OVCAR-3, with DU-145, in the assay on RXF 393 and with SN12C was > 10 µM (inactive) in each case. Besides, the GI50 in the assay with SK-MEL-2 is > 10 µM (inactive).

Turning to `CN(NC(=O)c1ccco1)C1=NCCN1`, the GI50 with HT-29, with NCI/ADR-RES, with T47D, with KM12, in the assay on NCI-H460 and with A549 was > 100 µM (inactive) each time. Further, the GI50 with SK-MEL-5, in the assay with HOP-62, with UACC-257, with HOP-92, in the assay with SF-295 and in the assay on ACHN was > 100 µM (inactive) in each case. Further, the GI50 with LOX IMVI, in the assay on EKVX, in the assay on U-251, in the assay with OVCAR-3, with DU-145 and in the assay on RXF 393 was > 100 µM (inactive) in each case. For the same compound, the GI50 in the assay on SN12C and in the assay with SK-MEL-2 was > 100 µM (inactive) each time.

Turning to `COC(=O)NC1=NNC(=O)c2ccccc2N1`, the GI50 with HT-29, in the assay on NCI/ADR-RES, in the assay on T47D, with KM12, in the assay on NCI-H460 and in the assay with A549 was > 100 µM (inactive) in each case. Besides, the GI50 with SK-MEL-5, with HOP-62, in the assay on UACC-257, with HOP-92, with SF-295 and in the assay on ACHN was > 100 µM (inactive) throughout. The GI50 in the assay with LOX IMVI, in the assay on EKVX, in the assay on U-251, in the assay on OVCAR-3, in the assay with DU-145 and in the assay with RXF 393 was > 100 µM (inactive) each time. Moreover, the GI50 with SN12C and in the assay on SK-MEL-2 was > 100 µM (inactive) in each case.

Turning to `CCOP(=O)(OCC)C1(O)CC(n2cc(C)c(=O)[nH]c2=O)OC1CO` (configuration not stated), the GI50 with HT-29, with NCI/ADR-RES, in the assay on T47D, in the assay on KM12, in the assay on NCI-H460 and in the assay on A549 was > 100 µM (inactive) in each case. Further, the GI50 in the assay with SK-MEL-5, in the assay on HOP-62, with UACC-257, in the assay with HOP-92, in the assay with SF-295 and with ACHN was > 100 µM (inactive) throughout. The GI50 in the assay with LOX IMVI, in the assay on EKVX, with U-251, in the assay on OVCAR-3, in the assay with DU-145 and with RXF 393 was > 100 µM (inactive) throughout. The GI50 in the assay on SN12C and in the assay on SK-MEL-2 was > 100 µM (inactive) each time.

As to `COc1ccc(Nc2[nH]c(C(C)=O)c(N)c2C(=S)Nc2ccccc2)cc1`, the GI50 was 35.3 µM (inactive) with HT-29; > 100 µM (inactive) with NCI/ADR-RES; 56.8 µM (inactive) in the assay on T47D; 37.5 µM (inactive) in the assay with KM12; 48.3 µM (inactive) with NCI-H460; 41.9 µM (inactive) in the assay on A549. Moreover, the GI50 in the assay on SK-MEL-5 was 37.2 µM (inactive); with HOP-62, > 100 µM (inactive); with UACC-257, 52.2 µM (inactive); with HOP-92, > 100 µM (inactive); in the assay on SF-295, 61.5 µM (inactive); in the assay with ACHN, 77.6 µM (inactive). Besides, the GI50 is 32.1 µM (inactive) with LOX IMVI; 99.8 µM (inactive) in the assay on EKVX; 43.8 µM (inactive) in the assay on U-251; > 100 µM (inactive) in the assay with OVCAR-3; > 100 µM (inactive) in the assay with DU-145; 16.6 µM (inactive) in the assay on RXF 393. The GI50 in the assay with SN12C is 86.7 µM (inactive); in the assay on SK-MEL-2, 32.9 µM (inactive).

With `Oc1ccccc1-c1n[nH]c(-c2ccccc2O)n1`, the GI50 was 3.91 µM (inactive) in the assay with HT-29; 2.45 µM (inactive) in the assay on NCI/ADR-RES; 2.21 µM (inactive) in the assay with T47D; 1.49 µM (inactive) in the assay on KM12; 0.573 µM (active) in the assay on NCI-H460; 2.21 µM (inactive) in the assay with A549. Moreover, the GI50 with SK-MEL-5 is 3.04 µM (inactive); in the assay on HOP-62, 1.77 µM (inactive); in the assay on HOP-92 it was 1.75 µM (inactive); in the assay on SF-295, 2.52 µM (inactive); in the assay on ACHN, 2.21 µM (inactive); in the assay with LOX IMVI, 2.06 µM (inactive). The GI50 with EKVX was 2.11 µM (inactive); in the assay on U-251, 3.25 µM (inactive); with OVCAR-3, 0.28 µM (active); in the assay on DU-145 it was 8.13 µM (inactive); in the assay on RXF 393, 2.23 µM (inactive); with SN12C, 2.17 µM (inactive). Also, the GI50 in the assay on SK-MEL-2 is > 100 µM (inactive).

Turning to `CCOC(=O)/C=C/C1OC(C)(C)OC1/C=C/C(=O)OCC` (configuration not stated), the GI50 in the assay on HT-29 is 18.2 µM (inactive); with NCI/ADR-RES, 32.7 µM (inactive); with T47D, 29.4 µM (inactive); with KM12, 25.4 µM (inactive); with NCI-H460 it was 21.2 µM (inactive); with A549, 40.9 µM (inactive). The GI50 in the assay with SK-MEL-5 is 38.4 µM (inactive); in the assay on HOP-62, 23.7 µM (inactive); in the assay with UACC-257, 48.4 µM (inactive); with HOP-92, 19.4 µM (inactive); with SF-295, 48.6 µM (inactive); with ACHN, 38.4 µM (inactive). The GI50 in the assay with LOX IMVI is 27 µM (inactive); with EKVX, 29.8 µM (inactive); in the assay on U-251 it was 41.3 µM (inactive); in the assay with DU-145, 34.8 µM (inactive); in the assay on RXF 393, 9.91 µM (inactive); with SN12C it was 22.6 µM (inactive). Besides, the GI50 in the assay on SK-MEL-2 was 81.5 µM (inactive).
